Reference: PMC6155272, “Chroman-4-One Derivatives Targeting Pteridine Reductase 1 and Showing Anti-Parasitic Activity” (Molecules : A Journal of Synthetic Chemistry and Natural …, 2017)

Target: T1, hERG channel (Homo sapiens, UniProt Q12809)
T1 construct: purchased Invitrogen
Experiment: hERG fluorescence polarisation assay (Predictor)
Format: binding
Settings: for inhibition at 10 µM: human
Excerpt: The assay made use of Invitrogen’s Predictor™ hERG Fluorescence Polarisation Assay. This uses a membrane fraction containing hERG channel (Predictor™ hERG Membrane) and a high-affinity red fluorescent hERG channel ligand, or “tracer” (Predictor™ hERG Tracer Red), whose displacement by test compounds can be determined in a homogenous, Fluorescence Polarisation (FP)-based format.

T1 sequence (Q12809 whole entry): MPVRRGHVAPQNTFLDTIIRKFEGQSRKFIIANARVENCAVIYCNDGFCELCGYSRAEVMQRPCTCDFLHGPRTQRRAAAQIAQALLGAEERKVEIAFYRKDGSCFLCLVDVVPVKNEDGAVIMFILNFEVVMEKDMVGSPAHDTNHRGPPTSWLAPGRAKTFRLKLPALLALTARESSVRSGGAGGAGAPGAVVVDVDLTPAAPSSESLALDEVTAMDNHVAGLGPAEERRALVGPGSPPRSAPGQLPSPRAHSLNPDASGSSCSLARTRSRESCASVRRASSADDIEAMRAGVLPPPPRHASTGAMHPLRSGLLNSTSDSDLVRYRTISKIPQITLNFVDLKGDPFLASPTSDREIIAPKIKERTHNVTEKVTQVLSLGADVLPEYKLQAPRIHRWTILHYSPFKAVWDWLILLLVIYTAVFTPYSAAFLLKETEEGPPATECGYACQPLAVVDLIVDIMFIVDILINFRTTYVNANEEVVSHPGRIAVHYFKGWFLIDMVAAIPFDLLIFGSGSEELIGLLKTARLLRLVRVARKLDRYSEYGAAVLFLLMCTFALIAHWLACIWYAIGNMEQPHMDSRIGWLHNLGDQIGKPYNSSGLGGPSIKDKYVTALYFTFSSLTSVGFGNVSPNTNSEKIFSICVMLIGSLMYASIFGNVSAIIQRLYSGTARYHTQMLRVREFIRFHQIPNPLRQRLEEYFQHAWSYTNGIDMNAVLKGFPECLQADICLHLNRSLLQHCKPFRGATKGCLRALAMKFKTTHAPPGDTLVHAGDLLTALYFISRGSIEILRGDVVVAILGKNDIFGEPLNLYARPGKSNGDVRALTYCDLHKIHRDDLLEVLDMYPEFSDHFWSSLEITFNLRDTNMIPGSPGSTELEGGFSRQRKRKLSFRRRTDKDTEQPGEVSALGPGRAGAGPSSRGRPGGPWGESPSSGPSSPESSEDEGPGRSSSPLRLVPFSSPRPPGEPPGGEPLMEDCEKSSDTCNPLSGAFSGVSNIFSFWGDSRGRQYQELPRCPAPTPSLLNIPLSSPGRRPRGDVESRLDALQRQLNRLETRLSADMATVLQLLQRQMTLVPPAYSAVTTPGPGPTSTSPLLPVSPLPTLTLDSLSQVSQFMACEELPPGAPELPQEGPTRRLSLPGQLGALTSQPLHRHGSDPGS

Compound	IC50 [µM]	inhibition at 10 µM [%]
O=C1CC(c2cccc(O)c2)Oc2ccc(O)cc21 (stereo not drawn) [Compound 1]	> 100	7
O=C1CC(c2ccc(O)cc2)Oc2ccc(O)cc21 (stereo not drawn) [Compound 2]	> 100	14
O=C1CC(c2ccc(O)c(O)c2)Oc2ccc(O)cc21 (stereo not drawn) [Compound 3]	64	20
